The conditions of series [1]: at 20° C. water; cited from earlier work.
Series [2] is described as follows: Thermal decomposition properties of salt forms (TGA). Format: physicochemical. The text has this:
The thermal decomposition properties of a range of salt forms of 5-MeO-DMT has been investigated and is summarised in the report below: […]

The nature of series [3]: Phase 1 single ascending dose study of intranasal 5-MeO-DMT benzoate (safety, tolerability, pharmacokinetics). Format: in vivo, human. The text has this: (§1) The applicant has funded double-blind, randomized, Phase 1, single ascending dose studies to evaluate the safety, tolerability and pharmacokinetic profile of intranasal 5-MeO-DMT hydrochloride and intranasal 5-MeO-DMT benzoate in healthy subjects. […] It is desirable that a compound for use in treatment has dose-proportional pharmacokinetics, for example, to facilitate dose and dose regimen adjustment in patients. In an embodiment, there is provided a salt of 5-MeO-DMT with dose-proportional pharmacokinetics, optionally for use in the methods disclosed herein. In an embodiment, the salt of 5-MeO-DMT with dose-proportional pharmacokinetics is the benzoate or HBr salt, optionally the benzoate salt. A double-blind, randomized, Phase 1, single ascending dose study to evaluate the safety, tolerability and pharmacokinetic profile of a liquid intranasal 5-MeO-DMT HCl (5-MeO-DMT HCl, HPMC, water for injection (WFI) and a sodium hydroxide solution to adjust pH) formulation in healthy subjects was performed.
A double-blind, randomized, Phase 1, single ascending dose study to evaluate the safety, tolerability and pharmacokinetic profile of intranasal 5-MeO-DMT benzoate in healthy subjects was performed.

Series [4] is described as follows: Hygroscopicity. Format: physicochemical. The text has this: In an embodiment, the formulation is non-hygroscopic. […] Hygroscopicity is the phenomenon of attracting and holding water molecules via either adsorption or absorption from the surrounding environment. Pharmaceuticals that pick up less than 0.2% moisture at 80% RH are considered non hygroscopic. […] Pharmaceuticals that pick up more than 15.0% moisture at 80% RH are considered very hygroscopic. Hygroscopic substances are difficult to handle and costly and burdensome measures must be taken in order to ensure they are not exposed to moisture during process and formulation. Exposed to moisture, hygroscopic substances can take on water and convert to a hydrous form. This presents several disadvantages. First, the hydrous forms may have the disadvantage of being less bioavailable and less dissoluble than the anhydrous forms. Second, the variation in the amount of hydrous versus anhydrous substance from batch to batch could fail to meet specifications set by drug regulatory agencies. […] Fourth, in addition to problems caused by introduction of moisture during the processing of these hygroscopic substances, the potential for absorbance of moisture during storage and handling would adversely affect the dissolubility of the drug substance.

Series [5] can be described thus: Phase 1 single ascending dose study of liquid intranasal 5-MeO-DMT HCl formulation. Format: in vivo, human. Particulars: liquid intranasal formulation, 5, 8, 10, 11 and 14 mg, healthy subjects.
Excerpt: as §1

Series [6] can be described thus: Previous preclinical work in dogs defining maximum exposure limits. Particulars: dog, in vivo.
The nature of series [7]: Solubility studies of lyophilised amorphous form (dissolution rate). The class given is physicochemical. The text has this:
Amorphous 5-MeO-DMT salt formulations have been produced via lyophilisation processes. It is noted that in some cases these have low glass transition temperatures. Conversion to a crystalline form may therefore occur, perhaps rapidly.

Series [8] in a line: Irritation tolerability. Particulars: in particular when compared to the chloride salt.

Entries after “also recorded” stand apart in the source; their conditions may differ. Where a name gives a salt, the structure may show the parent alone.

isomalt: the Solubility in series [1] is 42 g/100 g solution.

For `COc1ccc2[nH]cc(CCN(C)C)c2c1` [Saccharinate, 5-MeO-DMT saccharinate], in series [2], the “TGA Guidance: decomposition temperature” value was “Melt 80° C., gross dcomp starts 180 °C”.

`CN(C)CCc1c[nH]c2ccc(O)cc12` [Bufotenin]: the “detection of metabolite in plasma” value in series [3] (after intranasal 5-MeO-DMT benzoate, 6 mg dose level, after the 16 minutes timepoint) is reported as “only detected at very low levels”.

Regarding `COc1ccc2[nH]cc(CCN(C)C)c2c1` [Ketoglutarate, 5-MeO-DMT ketoglutarate], the “TGA Guidance: decomposition temperature” value in series [2] is “Melt 85° C., gross dcomp starts 170 °C”.

As for 5-MeO-DMT malate, the “TGA Guidance: decomposition temperature” value in series [2] was “Melt 100° C, gross dcomp starts 250 °C”.

`Br.COc1ccc2[nH]cc(CCN(C)C)c2c1` [Hydrobromide, 5-MeO-DMT hydrobromide]: the “TGA Guidance: decomposition temperature” value in series [2] is “Melt 149° C., gross dcomp starts 220 °C”. For the same compound, in series [4], the hygroscopicity entry is reported as “non-hygroscopic”.

Take `COc1ccc2[nH]cc(CCN(C)C)c2c1.Cl` [5-MeO-DMT HCl, 5-MeO-DMT hydrochloride]: in series [5], the “dose proportionality of pharmacokinetics” value was “does not display dose-proportional pharmacokinetics”.

In the case of `COc1ccc2[nH]cc(CCN(C)C)c2c1.O=S(=O)(O)c1ccccc1` [Benzenesulfonate, 5-MeO-DMT benzenesulfonate], in series [2], the “TGA Guidance: decomposition temperature” value was “Melt 76° C., gross dcomp starts 280 °C”.

Regarding 5-MeO-DMT glycolate, the “TGA Guidance: decomposition temperature” value in series [2] was “Melt 95° C., gross dcomp starts 170 °C”.

For the compound `COc1ccc2[nH]cc(CCN(C)C)c2c1.O=C(O)C(=O)O` [Oxalate, 5-MeO-DMT oxalate], the “TGA Guidance: mass loss” value in series [2] is “Melts 176° C., full mass loss”.

As for `COc1ccc2[nH]cc(CCN(C)C)c2c1` [Example 5-MeO-DMT, 5-methoxy-N,N-dimethyltryptamine], the AUC (as a rule, concentration integrated over time) in series [6] (read-out: maximum exposure limit AUC) was 220 ng·h/mL. The Cmax (commonly the maximum level reached in the sampled fluid or tissue) in series [6] (read-out: maximum exposure limit Cmax) stood at 421 ng/mL.

As to `COc1ccc2[nH]cc(CCN(C)C)c2c1` [Tosylate, 5-MeO-DMT tosylate], the “TGA Guidance: decomposition temperature” value in series [2] is “Melt 110° C, gross dcomp starts 280 °C ° C”.

As to `COc1ccc2[nH]cc(CCN(C)C)c2c1.O=C(O)c1ccccc1` [5-MeO-DMT benzoate], the “dose proportionality of pharmacokinetics” value in series [3] (intranasal single ascending dose, healthy subjects) is reported as “exhibits dose-proportional pharmacokinetics; also recorded: approximately dose linear”. Also, in series [3] (intranasal, 12 mg dosage, healthy subjects, plasma 5-MeO-DMT), the “mean Cmax” value came out at 29 ng/mL. In series [3] (intranasal, healthy subjects), the “mean Tmax” value came out at 9.5 min and the “mean half-life (T1/2)” value turned out to be 21 min. In series [2], the “TGA Guidance: decomposition temperature” value was around 220 °C and the “TGA Guidance: mass loss” value is on record as “full mass loss”. In addition, in series [7], the dissolution rate result was “almost instantaneous dissolution rate”. Besides, the irritation tolerability entry in series [8] was “good irritation tolerability”.

`COc1ccc2[nH]cc(CCN(C)C)c2c1` [Phosphate, 5-MeO-DMT phosphate]: the “TGA Guidance: decomposition temperature” value in series [2] was “Decomp around 200 °C”.

Turning to 5-MeO-DMT tartrate, the “TGA Guidance: decomposition temperature” value in series [2] was “Melt ~140° C., decomp ~200 °C”.

In the case of `COc1ccc2[nH]cc(CCN(C)C)c2c1` [Fumarate, 5-MeO-DMT fumarate], the “TGA Guidance: decomposition temperature” value in series [2] was “Decomp around 200 °C”.

The values are drawn from patent publication US12246005B2, “5-methoxy-n,n-dimethyltryptamine (5-MeO-DMT) formulations” (Beckley Psytech Limited, priority 2023, dated 2025).
